# Reference: US9850227B2 (YUHAN CORPORATION, priority 2011, dated 2017)
# Counter-ions that a name gives are not always drawn.
# Biological target: T1, human 5-HT4(a) (Homo sapiens, UniProt Q13639)
# T1 construct: host or cells: GeneBIAzer HTR4-CRE-bla CHO-K1 cells
# Experiment: Evaluation of agonistic activity in CHO-K1 cells expressing human 5-HT4(a) (GeneBIAzer HTR4-CRE-bla CHO-K1 cells, beta-lactamase fluorescence ratio, EC50 from 8 concentrations)
# Type: cell-based
# Method: Evaluation of Agonistic Activity in CHO-K1 Cells Expressing Human 5-HT4(a)
# As CHO-K1 cells stably expressing human 5-HT4(a), we used the GeneBIAzer HTR4-CRE-bla CHO-K1 cells (Invitrogen Corp.). The cells were cultured, under the condition of 37° C. and 5% CO2, in a DMEM supplemented with 10% fetal bovine serum (FBS), 25 mM HEPES (pH7.4), 600 μg/ml hygromycin B, 0.1 mM non-essential amino acids, 100 unit/ml penicillin and 100 μg/ml streptomycin. Subcultures were performed three times per one week, each being at less than 80% confluence. At the previous day before treating test compounds, the cells were collected using 0.5% trypsin/EDTA and then diluted with a DMEM supplemented with 1% FBS, 25 mM HEPES, and 0.1 mM non-essential amino acids into 3.125×10^5 cells/ml. 32 μl of the diluted cells were added into 384-well plate (10^4 cells per well) and then incubated overnight. After the overnight culture, 8 μl of the medium having 1% of DMSO was added into the cell-free control well and the non-stimulating control well, respectively. 8 μl of the respective test compound dilutions (which had been prepared by diluting by 100-times with the medium as mentioned in the above) having 1% of DMSO were added to the respective remaining wells. After being cultured in the incubator for 5 hours, the wells of the 384-plate were treated with the substrate solution (8 μl per well) prepared according to the vendor's instruction (i.e., Invitrogen's instruction), and then incubated in the dark room for additional two hours. Agonistic activities on 5-HT4 receptor were evaluated, on the basis of fluorescence values of the cleavage-products by beta-lactamase. After exciting to 410 nm of wavelength using a fluorescence detector (Genios Pro), we measured the fluorescence values at two emission wavelengths (first wavelength: 465 nm, second wavelength: 535 nm). Data were analyzed on the basis of the ratio of fluorescence intensities of each well at the respective wavelengths. Each EC50 value was calculated by non-linear regression analysis using the “GraphPad Prism” program, based on the activities according to 8-different concentrations of the test compounds.
# T1 sequence (Q13639 1-387 isoform Q13639-2): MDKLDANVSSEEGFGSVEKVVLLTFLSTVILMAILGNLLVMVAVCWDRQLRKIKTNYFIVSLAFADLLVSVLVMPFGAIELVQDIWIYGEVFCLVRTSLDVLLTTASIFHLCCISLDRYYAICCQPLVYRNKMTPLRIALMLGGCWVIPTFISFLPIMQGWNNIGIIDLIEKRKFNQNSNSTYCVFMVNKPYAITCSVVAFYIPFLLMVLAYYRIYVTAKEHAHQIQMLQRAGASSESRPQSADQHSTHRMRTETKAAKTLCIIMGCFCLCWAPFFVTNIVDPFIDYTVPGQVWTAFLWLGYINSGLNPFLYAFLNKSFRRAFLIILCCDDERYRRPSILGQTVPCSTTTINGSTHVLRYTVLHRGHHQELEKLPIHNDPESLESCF
row,EC50,Structure (SMILES)
1,108 pM,"CCCCc1cc(N2CCC[C@@H](N)C2)nc(Nc2ccc(F)c(C#N)c2)n1 [Example 294, (R)-5-[4-(3-aminopiperidin-1-yl)-6-butylpyrimidin-2-ylamino]-2-fluorobenzonitrile]"
2,9.6 pM,"CCCc1cc(N2CCC[C@@H](N)C2)nc(Nc2ccc(N)c([N+](=O)[O-])c2)n1 [Example 266, (R)—N^1-[4-(3-aminopiperidin-1-yl)-6-propylpyrimidin-2-yl]-3-nitrobenzene-1,4-diamine]"
3,14 pM,"CCCc1cc(N2CCC[C@@H](NC(C)=O)C2)nc(Nc2ccc(N)c(C(F)(F)F)c2)n1 [Example 279, (R)—N-(1-{2-[4-amino-3-(trifluoromethyl)phenylamino]-6-propylpyrimidin-4-yl}piperidin-3-yl)acetamide]"
4,8.7 pM,"CCCN[C@@H]1CCCN(c2cc(CCC)nc(Nc3ccc(C)c(C#N)c3)n2)C1 [Example 206, (R)-5-{4-[3-(propylamino)piperidin-1-yl]-6-propylpyrimidin-2-ylamino}-2-methylbenzonitrile]"
5,270 pM,"CCCc1cc(N2CCOCC2)nc(Nc2ccc(F)c([N+](=O)[O-])c2)n1 [Example 84, N-(4-fluoro-3-nitrophenyl)-4-morpholino-6-propylpyrimidin-2-amine hydrochloride]"
6,6.3 pM,"CCCc1cc(N2CCC[C@@H](NCC3CC3)C2)nc(Nc2cc(N)cc(C(F)(F)F)c2)n1 [Example 231, (R)—N^1-{4-[3-(cyclopropylmethylamino)piperidin-1-yl]-6-propylpyrimidin-2-yl}-5-(trifluoromethyl)benzene-1,3-diamine]"
7,25 pM,"CCCc1cc(N2CCC[C@@H](NC(C)=O)C2)nc(Nc2ccc(F)c(C#N)c2)n1 [Example 268, (R)—N-{1-[2-(3-cyano-4-fluorophenylamino)-6-propylpyrimidin-4-yl]piperidin-3-yl}acetamide]"
8,180 pM,"CCCc1cc(N2CCCC3CCCCC32)nc(Nc2ccc3[nH]c(C(F)(F)F)nc3c2)n1 (stereo not drawn) [Example 200, N-[4-(octahydroquinolin-1(2H)-yl)-6-propylpyrimidin-2-yl]-2-(trifluoromethyl)-1H-benzo[d]imidazol-5-amine]"
9,320 pM,"CCCc1cc(N2CCCCC2CC)nc(Nc2ccc3nc(C(F)(F)F)[nH]c3c2)n1 (stereo not drawn) [Example 109, N-[4-(2-ethylpiperidin-1-yl)-6-propylpyrimidin-2-yl]-2-(trifluoromethyl)-1H-benzo[d]imidazol-6-amine]"
10,310 pM,"CCCc1cc(N2CCCCC2CC)nc(Nc2cnc3ccccc3c2)n1 (stereo not drawn) [Example 114, N-[4-(2-ethylpiperidin-1-yl)-6-propylpyrimidin-2-yl]quinolin-3-amine]"
11,14 pM,"CCCCc1cc(N2CCC[C@@H](N)C2)nc(Nc2ccc(F)c(N)c2)n1 [Example 349, (R)—N^1-[4-(3-aminopiperidin-1-yl)-6-butylpyrimidin-2-yl]-4-fluorobenzene-1,3-diamine]"
12,54 pM,"CCCCc1cc(N2CCC[C@@H](NC)C2)nc(Nc2cccc(C#N)c2)n1 [Example 329, (R)-3-({4-butyl-6-[3-(methylamino)piperidin-1-yl]pyrimidin-2-yl}amino)benzonitrile]"
13,84 pM,"CCCc1cc(N2CCC[C@@H](N)C2)nc(Nc2ccc(F)c(N)c2)n1 [Example 259, (R)—N^1-[4-(3-aminopiperidin-1-yl)-6-propylpyrimidin-2-yl]-4-fluorobenzene-1,3-diamine]"
14,35 pM,"CCCc1cc(N2CCCCC2CCO)nc(Nc2ccc(N)c(C(F)(F)F)c2)n1 (stereo not drawn) [Example 175, 2-{1-[2-(4-amino-3-trifluoromethylphenylamino)-6-propylpyrimidin-4-yl]piperidin-2-yl}ethanol]"
15,28 pM,"CCCCc1cc(N2CCC[C@@H](N)C2)nc(Nc2ccc(N)c(C#N)c2)n1 [Example 350, (R)-2-amino-5-{[4-(3-aminopiperidin-1-yl)-6-butylpyrimidin-2-yl]amino}benzonitrile]"
